In ChEMBL document CHEMBL5291721, “A preclinical secondary pharmacology resource illuminates target-adverse drug reaction associations of marketed drugs” (Nat Commun, 2023):

How the values were obtained:
[1] = biological target: Sodium-dependent serotonin transporter (Homo sapiens, UniProt P31645)
Histamine H2 receptor = Histamine H2 receptor (Homo sapiens, UniProt P25021); format: functional, cell-based
[2] = biological target: Delta-type opioid receptor (Homo sapiens, UniProt P41143)
Progesterone receptor = biological target: T1, Progesterone receptor (Homo sapiens, UniProt P06401); format: functional
T1 sequence (P06401 whole entry): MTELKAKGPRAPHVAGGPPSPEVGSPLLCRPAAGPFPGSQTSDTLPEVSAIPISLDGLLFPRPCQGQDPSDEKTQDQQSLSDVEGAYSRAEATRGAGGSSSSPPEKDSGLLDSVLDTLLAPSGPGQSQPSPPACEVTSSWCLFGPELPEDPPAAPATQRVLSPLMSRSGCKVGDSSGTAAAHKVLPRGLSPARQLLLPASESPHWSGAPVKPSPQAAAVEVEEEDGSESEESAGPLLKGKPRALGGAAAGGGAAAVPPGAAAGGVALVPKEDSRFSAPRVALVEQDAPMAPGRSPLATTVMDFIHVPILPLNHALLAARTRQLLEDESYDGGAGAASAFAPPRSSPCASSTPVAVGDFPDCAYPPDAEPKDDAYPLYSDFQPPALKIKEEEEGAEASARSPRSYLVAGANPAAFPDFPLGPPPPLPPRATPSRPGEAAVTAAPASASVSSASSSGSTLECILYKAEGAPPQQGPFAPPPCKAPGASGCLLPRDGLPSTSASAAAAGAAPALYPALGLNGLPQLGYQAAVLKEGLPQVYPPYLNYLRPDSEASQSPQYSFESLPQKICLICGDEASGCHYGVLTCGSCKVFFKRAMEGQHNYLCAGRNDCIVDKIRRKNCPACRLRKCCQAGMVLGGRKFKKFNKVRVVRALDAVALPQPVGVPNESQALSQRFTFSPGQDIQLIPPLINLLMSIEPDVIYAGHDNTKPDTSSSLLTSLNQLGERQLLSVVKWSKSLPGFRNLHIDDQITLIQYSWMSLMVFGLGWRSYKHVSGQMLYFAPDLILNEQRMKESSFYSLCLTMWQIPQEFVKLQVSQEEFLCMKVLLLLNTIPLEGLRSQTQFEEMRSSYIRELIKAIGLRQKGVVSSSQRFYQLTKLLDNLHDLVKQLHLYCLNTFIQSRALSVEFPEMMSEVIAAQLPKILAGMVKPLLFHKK

Glucocorticoid receptor = biological target: T2, Glucocorticoid receptor (Homo sapiens, UniProt P04150)
T2 sequence (P04150 whole entry): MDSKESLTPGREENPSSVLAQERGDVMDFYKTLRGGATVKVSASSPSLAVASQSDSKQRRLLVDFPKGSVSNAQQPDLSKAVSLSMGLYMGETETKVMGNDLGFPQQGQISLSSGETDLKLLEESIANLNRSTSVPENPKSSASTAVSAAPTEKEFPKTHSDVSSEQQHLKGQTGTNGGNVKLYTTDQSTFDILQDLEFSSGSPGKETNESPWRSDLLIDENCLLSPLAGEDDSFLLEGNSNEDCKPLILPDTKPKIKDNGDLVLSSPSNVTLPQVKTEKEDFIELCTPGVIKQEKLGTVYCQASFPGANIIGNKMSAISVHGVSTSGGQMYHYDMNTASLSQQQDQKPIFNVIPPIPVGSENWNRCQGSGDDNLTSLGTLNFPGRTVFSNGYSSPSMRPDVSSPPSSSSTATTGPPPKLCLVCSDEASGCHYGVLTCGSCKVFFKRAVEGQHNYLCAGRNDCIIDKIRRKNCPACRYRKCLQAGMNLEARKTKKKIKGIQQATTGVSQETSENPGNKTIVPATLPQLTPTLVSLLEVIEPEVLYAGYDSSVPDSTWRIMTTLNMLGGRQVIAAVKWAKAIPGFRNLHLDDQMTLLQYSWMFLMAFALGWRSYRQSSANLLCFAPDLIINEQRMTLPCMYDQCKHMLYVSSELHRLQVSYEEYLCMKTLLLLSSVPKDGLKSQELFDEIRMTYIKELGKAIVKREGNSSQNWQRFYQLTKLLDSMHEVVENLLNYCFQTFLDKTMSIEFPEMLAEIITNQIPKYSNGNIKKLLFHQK

[3] = biological target: cGMP-inhibited 3',5'-cyclic phosphodiesterase 3A (Homo sapiens, UniProt Q14432); format: functional
[4] = biological target: T3, 5-hydroxytryptamine receptor 2C (Homo sapiens, UniProt P28335)
T3 sequence (P28335 whole entry): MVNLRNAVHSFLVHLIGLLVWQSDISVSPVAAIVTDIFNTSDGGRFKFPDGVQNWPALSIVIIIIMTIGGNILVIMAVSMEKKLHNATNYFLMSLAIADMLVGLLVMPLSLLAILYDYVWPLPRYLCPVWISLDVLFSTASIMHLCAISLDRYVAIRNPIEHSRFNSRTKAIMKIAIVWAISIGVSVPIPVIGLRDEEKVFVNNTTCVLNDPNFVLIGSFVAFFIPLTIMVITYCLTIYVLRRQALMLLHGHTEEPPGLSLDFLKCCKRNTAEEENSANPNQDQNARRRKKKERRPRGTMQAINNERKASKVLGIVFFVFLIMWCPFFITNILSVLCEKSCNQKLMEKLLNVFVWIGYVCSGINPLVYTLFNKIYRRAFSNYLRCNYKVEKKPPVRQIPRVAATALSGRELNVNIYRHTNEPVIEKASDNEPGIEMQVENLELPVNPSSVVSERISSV

Vasopressin V2 receptor = Vasopressin V2 receptor (Homo sapiens, UniProt P30518)
[5] = biological target: T4, 5-hydroxytryptamine receptor 3A (Homo sapiens, UniProt P46098); format: functional
T4 sequence (P46098 whole entry): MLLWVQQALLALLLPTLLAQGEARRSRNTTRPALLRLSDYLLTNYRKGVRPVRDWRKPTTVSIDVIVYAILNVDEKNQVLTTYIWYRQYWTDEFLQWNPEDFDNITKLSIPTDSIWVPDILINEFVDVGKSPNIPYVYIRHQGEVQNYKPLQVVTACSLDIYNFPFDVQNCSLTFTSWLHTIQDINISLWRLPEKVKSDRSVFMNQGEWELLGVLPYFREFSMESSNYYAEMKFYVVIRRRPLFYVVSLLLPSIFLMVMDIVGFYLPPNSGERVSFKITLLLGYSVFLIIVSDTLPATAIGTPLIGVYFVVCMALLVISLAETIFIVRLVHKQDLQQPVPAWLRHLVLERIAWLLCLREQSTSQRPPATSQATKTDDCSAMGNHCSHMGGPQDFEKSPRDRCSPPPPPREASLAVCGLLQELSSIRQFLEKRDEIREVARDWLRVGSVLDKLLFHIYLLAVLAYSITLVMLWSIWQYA
Further: assay procedure not described here.

Chain of Histamine H2 receptor (P25021 whole entry): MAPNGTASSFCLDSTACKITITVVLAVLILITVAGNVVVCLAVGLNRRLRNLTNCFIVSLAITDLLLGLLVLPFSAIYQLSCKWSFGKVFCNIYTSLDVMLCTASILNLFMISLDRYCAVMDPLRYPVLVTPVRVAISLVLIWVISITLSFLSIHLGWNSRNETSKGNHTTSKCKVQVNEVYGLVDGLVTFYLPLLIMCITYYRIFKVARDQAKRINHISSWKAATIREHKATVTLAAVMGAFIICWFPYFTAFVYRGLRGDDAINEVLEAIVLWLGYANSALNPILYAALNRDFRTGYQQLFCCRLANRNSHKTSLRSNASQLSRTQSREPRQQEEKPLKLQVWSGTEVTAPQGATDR
Chain of cGMP-inhibited 3',5'-cyclic phosphodiesterase 3A (Q14432 whole entry): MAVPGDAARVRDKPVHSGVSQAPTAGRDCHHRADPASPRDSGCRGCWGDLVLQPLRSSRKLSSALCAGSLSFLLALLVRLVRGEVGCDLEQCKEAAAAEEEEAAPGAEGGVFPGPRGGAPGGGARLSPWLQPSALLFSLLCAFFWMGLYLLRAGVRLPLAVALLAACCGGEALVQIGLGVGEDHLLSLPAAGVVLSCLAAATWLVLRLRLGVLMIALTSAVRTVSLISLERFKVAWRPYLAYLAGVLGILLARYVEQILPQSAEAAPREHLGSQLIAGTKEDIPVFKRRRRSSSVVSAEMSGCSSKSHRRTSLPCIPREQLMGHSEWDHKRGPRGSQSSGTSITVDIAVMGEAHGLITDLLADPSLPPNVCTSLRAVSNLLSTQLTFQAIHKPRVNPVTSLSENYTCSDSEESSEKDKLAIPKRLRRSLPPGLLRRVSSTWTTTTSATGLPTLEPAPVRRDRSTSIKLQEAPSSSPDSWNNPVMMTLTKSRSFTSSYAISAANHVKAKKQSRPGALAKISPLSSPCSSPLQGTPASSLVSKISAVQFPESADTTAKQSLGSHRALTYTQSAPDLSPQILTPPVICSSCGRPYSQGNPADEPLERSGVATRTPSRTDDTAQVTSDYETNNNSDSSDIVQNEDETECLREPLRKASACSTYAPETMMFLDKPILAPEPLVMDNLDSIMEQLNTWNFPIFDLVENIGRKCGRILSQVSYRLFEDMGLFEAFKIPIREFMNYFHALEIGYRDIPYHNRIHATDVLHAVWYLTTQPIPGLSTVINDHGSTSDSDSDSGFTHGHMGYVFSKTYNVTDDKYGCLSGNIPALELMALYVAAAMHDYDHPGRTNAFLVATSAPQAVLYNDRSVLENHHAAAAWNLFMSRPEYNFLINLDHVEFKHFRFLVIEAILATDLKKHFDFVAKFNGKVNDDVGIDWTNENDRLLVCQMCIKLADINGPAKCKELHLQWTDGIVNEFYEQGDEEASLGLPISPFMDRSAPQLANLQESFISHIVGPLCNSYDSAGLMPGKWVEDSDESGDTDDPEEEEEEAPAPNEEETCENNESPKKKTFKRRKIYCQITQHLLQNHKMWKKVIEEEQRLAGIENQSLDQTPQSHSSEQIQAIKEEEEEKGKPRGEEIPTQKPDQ
Chain of Vasopressin V2 receptor (P30518 whole entry): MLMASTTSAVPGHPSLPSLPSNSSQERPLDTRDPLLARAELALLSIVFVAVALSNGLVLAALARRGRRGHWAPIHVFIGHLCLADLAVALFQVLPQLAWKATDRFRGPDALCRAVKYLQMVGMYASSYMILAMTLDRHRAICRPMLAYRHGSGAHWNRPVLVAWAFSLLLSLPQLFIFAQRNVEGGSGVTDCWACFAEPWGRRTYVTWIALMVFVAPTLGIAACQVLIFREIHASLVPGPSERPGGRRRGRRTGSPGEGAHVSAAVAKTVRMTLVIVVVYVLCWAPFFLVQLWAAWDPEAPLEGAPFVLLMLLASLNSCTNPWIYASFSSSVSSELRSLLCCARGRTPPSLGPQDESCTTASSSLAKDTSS
Chain of Delta-type opioid receptor (P41143 whole entry): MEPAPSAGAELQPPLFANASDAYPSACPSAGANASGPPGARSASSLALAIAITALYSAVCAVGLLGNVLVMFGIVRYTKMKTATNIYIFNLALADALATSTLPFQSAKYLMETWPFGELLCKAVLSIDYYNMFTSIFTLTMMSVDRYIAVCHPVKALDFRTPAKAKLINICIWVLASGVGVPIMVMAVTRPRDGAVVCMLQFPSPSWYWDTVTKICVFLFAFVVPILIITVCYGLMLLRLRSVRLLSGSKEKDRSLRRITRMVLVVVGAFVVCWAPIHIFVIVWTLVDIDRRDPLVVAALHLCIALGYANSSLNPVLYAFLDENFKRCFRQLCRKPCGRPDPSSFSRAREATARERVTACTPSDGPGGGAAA
Chain of Sodium-dependent serotonin transporter (P31645 whole entry): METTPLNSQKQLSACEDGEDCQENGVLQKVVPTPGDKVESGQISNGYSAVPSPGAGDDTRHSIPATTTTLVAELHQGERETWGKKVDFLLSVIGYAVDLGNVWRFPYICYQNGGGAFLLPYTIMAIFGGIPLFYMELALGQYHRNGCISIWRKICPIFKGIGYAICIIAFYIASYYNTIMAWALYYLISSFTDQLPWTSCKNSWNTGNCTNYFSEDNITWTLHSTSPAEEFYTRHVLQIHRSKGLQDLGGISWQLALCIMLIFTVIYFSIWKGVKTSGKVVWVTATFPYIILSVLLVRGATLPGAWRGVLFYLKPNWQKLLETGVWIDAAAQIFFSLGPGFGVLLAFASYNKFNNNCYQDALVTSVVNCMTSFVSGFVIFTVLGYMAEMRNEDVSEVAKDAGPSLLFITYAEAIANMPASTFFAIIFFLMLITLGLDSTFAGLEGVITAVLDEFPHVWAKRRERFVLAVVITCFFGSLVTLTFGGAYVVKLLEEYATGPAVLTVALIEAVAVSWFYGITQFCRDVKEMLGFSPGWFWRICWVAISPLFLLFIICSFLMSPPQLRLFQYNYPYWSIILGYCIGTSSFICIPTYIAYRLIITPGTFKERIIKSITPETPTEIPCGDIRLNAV

SMILES	AC50 [1] [µM]	AC50 (Histamine H2 receptor) [µM]	AC50 [2] [µM]	AC50 (Progesterone receptor) [µM]	AC50 (Glucocorticoid receptor) [µM]	AC50 [3] [µM]	AC50 [4] [µM]	AC50 (Vasopressin V2 receptor) [µM]	AC50 [5] [µM]
C[C@H](N[C@@H](CCc1ccccc1)C(=O)O)C(=O)N1Cc2ccccc2C[C@H]1C(=O)O	> 30	–	–	–	–	–	–	–	–
O=C(O)[C@@H]1C[C@@H](O)CN1	> 30	–	–	–	–	–	–	–	–
CCOC(=O)c1ccc(N)cc1 [BENZOCAINE]	–	> 10	> 30	> 10	> 10	> 30	> 30	> 10	> 30
CC(C)(Oc1ccc(CCNC(=O)c2ccc(Cl)cc2)cc1)C(=O)O [BEZAFIBRATE]	–	> 10	> 30	> 10	> 10	> 30	> 30	> 10	> 30
CC(O)(CS(=O)(=O)c1ccc(F)cc1)C(=O)Nc1ccc(C#N)c(C(F)(F)F)c1 (centres undefined) [BICALUTAMIDE]	–	> 10	> 10	> 30	> 30	> 10	> 30	> 30	> 10
C/C=C(/C(=C/C)c1ccc(O)cc1)c1ccc(O)cc1 [DIENESTROL]	–	> 10	21	> 30	0.736	> 30	> 30	> 10	> 30
CN[C@]1(c2ccccc2Cl)CCCCC1=O [ESKETAMINE]	–	> 30	> 30	> 30	> 30	> 30	> 30	> 30	> 30
COc1ccc([C@@H]2CC(=O)c3c(O)cc(O)cc3O2)cc1O [HESPERETIN]	–	> 30	> 30	> 10	> 10	21	> 30	> 10	> 30
CNCCc1ccc(OC(=O)C(C)C)c(OC(=O)C(C)C)c1 [IBOPAMINE]	–	> 30	> 30	> 30	> 30	> 30	> 30	> 30	> 30
CCOC(=O)C1=C(C)NC(C)=C(C(=O)OCC)C1c1ccccc1/C=C/C(=O)OC(C)(C)C [LACIDIPINE]	–	> 30	> 30	29	> 30	> 30	> 30	> 30	> 30
C=C1c2cccc(O)c2C(=O)C2=C(O)[C@]3(O)C(=O)C(C(N)=O)=C(O)[C@@H](N(C)C)[C@@H]3[C@@H](O)[C@H]12 [METHACYCLINE]	–	> 10	> 30	> 30	> 30	> 30	> 30	> 30	> 30
Cc1ccccc1N1C(=O)c2cc(S(N)(=O)=O)c(Cl)cc2NC1C (centres undefined) [METOLAZONE]	–	> 10	> 30	> 10	> 10	> 30	> 30	> 10	> 30
O=C(O)c1cccnc1Nc1cccc(C(F)(F)F)c1 [NIFLUMIC ACID]	–	> 10	> 30	> 10	> 10	> 30	> 30	> 10	> 30
O=C1c2cccc3c2[C@H](CCC3)CN1[C@@H]1CN2CCC1CC2 [PALONOSETRON]	–	> 30	> 30	> 30	> 30	> 30	> 30	> 30	0.0021
OC[C@H]1O[C@@H](n2cnc3c2NC=NC[C@H]3O)C[C@@H]1O [PENTOSTATIN]	–	> 30	> 30	> 30	> 30	> 30	> 10	> 30	> 30
O=C1c2ccccc2C(=O)C1c1ccccc1 [PHENINDIONE]	–	> 10	> 30	> 10	> 10	> 30	> 30	> 10	> 30
Cc1cccc(C)c1NC(=O)CC12CCCN1CCC2 [PILSICAINIDE]	–	> 30	> 30	> 30	> 30	> 30	> 30	> 30	> 30
CCCN1CC(NS(=O)(=O)N(CC)CC)CC2Cc3c(O)cccc3CC21 (centres undefined) [QUINAGOLIDE]	–	> 30	> 30	> 30	> 30	> 30	> 30	> 30	> 30
COC(=O)[C@H]1[C@H]2C[C@@H]3c4[nH]c5cc(OC)ccc5c4CCN3C[C@H]2C[C@@H](OC(=O)c2cc(OC)c(OC)c(OC)c2)[C@@H]1OC [RESERPINE]	–	> 30	> 30	> 10	> 10	> 30	> 30	> 10	> 30
O=C1OC(OC(=O)c2cccnc2Nc2cccc(C(F)(F)F)c2)c2ccccc21 (centres undefined) [TALNIFLUMATE]	–	> 30	> 30	> 30	> 30	> 30	> 30	> 30	> 30
CCOC(=O)c1c(CSc2ccccc2)n(C)c2cc(Br)c(O)c(CN(C)C)c12 [UMIFENOVIR]	–	> 30	> 30	> 30	> 30	> 30	2.6	> 30	> 30
